For assay [1], the target named is Acetylcholinesterase (Electrophorus electricus) (UniProt O42275). As to conditions: at 2 mg/mL.
Description: Inhibition of electric eel AChE at 2 mg/ml by Ellman's method
For assay [2], the target named is Cholinesterase (Equus caballus) (UniProt P81908). As to conditions: at 2 mg/mL.
Sequence of Cholinesterase (Equus caballus) (P81908 whole entry): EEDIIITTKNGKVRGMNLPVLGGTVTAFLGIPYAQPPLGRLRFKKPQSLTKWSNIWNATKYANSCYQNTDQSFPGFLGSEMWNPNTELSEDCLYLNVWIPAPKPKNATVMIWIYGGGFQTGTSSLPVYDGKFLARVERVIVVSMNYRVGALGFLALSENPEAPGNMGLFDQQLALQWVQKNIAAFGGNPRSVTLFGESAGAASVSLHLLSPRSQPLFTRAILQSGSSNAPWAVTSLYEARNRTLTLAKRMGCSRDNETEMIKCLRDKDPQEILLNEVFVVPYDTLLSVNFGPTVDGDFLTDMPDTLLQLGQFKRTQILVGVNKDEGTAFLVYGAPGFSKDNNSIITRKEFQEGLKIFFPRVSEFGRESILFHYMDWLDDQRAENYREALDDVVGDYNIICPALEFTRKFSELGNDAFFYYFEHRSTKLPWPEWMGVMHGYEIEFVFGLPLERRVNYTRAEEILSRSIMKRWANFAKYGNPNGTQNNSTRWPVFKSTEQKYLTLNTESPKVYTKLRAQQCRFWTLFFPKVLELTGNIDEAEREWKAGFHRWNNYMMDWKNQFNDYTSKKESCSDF
Description: Inhibition of horse BChE at 2 mg/ml by Ellman's method

Turning to `COc1ccc(C[C@H]2c3cc(OC)c(OC)cc3CC[N+]2(C)C)cc1OC`, the results for the inhibition in assay [1] and in assay [2] were 28.5% and 2.85%, respectively.

Turning to `CC(=O)OC[C@@]1(O)C[C@@]23CC[C@@H]4c5ccoc5C=C[C@@]4(C)[C@@H]2CC[C@@H]1C3`, the results for the inhibition in assay [1] and in assay [2] were 14.1% and 1.7%, respectively.

`CC1=C(/C=C/C(C)=C/C=C/C(C)=C\C(=O)O)C(C)(C)CCC1`: the inhibition in assay [1] came out at 11.5%; in assay [2] it was 0.91%.

For the compound `CN1C2CCCC1CC(=O)C2`, the values for the inhibition in assay [1] and in assay [2] were 16.5% and 1.42%, respectively.

On to `O=C1Nc2ccccc2/C1=C1/Nc2ccccc2C1=O`, for which the values for the inhibition in assay [1] and in assay [2] were 7.97% and 13.7%, respectively.

With `CCN1C[C@]2(C)CC[C@H](OC)[C@@]34C1[C@]1(OCO[C@@]15C[C@H](OC)[C@H]1C[C@]3(O)[C@@H]5[C@H]1OC)[C@@H](OC(C)=O)[C@H]24`, the values for the inhibition in assay [1] and in assay [2] were 29.5% and 0.02%, respectively.

Regarding `COc1ccc(-c2cc(=O)c3c(O)cc(O)cc3o2)cc1O`, the inhibition was -8.89% in assay [1] and -6.13% in assay [2].

Turning to `COc1ccc(Cc2nccc3cc(OC)c(OC)cc23)cc1OC`, the inhibition in assay [1] stood at 35%.

Consider `Cn1c(-c2ccc3c(c2)OCO3)cc(=O)c2ccccc21`, for which the inhibition was 31.1% in assay [1] and 9.48% in assay [2].

`CN(C)Cc1c[nH]c2ccccc12`: the inhibition in assay [1] is 15.3%; in assay [2], 10.6%.

Regarding `COc1c(O)cc2c(c1O)[C@@H]1O[C@H](CO)[C@@H](O)[C@H](O)[C@H]1OC2=O`, the inhibition in assay [1] is 7.33%; in assay [2], -0.62%.

On to `C[C@@H]1CC[C@H]2[C@@H](C)C(=O)O[C@@H]3O[C@@]4(C)CC[C@@H]1[C@]32OO4`, for which the figures for the inhibition in assay [1] and in assay [2] were 2.43% and 35.6%, respectively.

On to `CN1[C@@H]2CC[C@H]1C[C@@H](OC(=O)[C@H](CO)c1ccccc1)C2`, for which the inhibition in assay [1] was determined as 15.5%; in assay [2] it was 3.5%.

Take IVERMECTIN: the inhibition in assay [1] was 17.8%; in assay [2], -3.98%.

With `C=C(C)[C@@H]1CC[C@]2(C(=O)O)CC[C@]3(C)[C@H](CC[C@@H]4[C@@]5(C)CC[C@H](O)C(C)(C)[C@@H]5CC[C@]43C)[C@@H]12`, the inhibition in assay [1] is -5.33%; in assay [2], 2.88%.

With `CCCCC[C@H](O)/C=C/[C@H]1C=CC(=O)[C@@H]1CCCCCCC(=O)O`, the figures for the inhibition in assay [1] and in assay [2] were 15.3% and -1.82%, respectively.

With `C/C(=C/C=C/[C@@H](C)C(=O)O)[C@H]1CN[C@H](C(=O)O)[C@H]1CC(=O)O`, in assay [2], the inhibition is 2.83%.

In the case of `O=C(O)C1=C[C@@H](O)[C@@H](O)[C@H](O)C1`, the results for the inhibition in assay [1] and in assay [2] were -8.33% and -4.96%, respectively.

For the compound `CC1=C[C@]23C(=O)[C@@H](C=C(CO)[C@@H](O)[C@]2(O)[C@H]1O)[C@H]1[C@@H](C[C@H]3C)C1(C)C`, the inhibition in assay [1] was -4.51%; in assay [2], -1.75%.

As for `C=CCc1ccc(O)c(-c2cc(CC=C)ccc2O)c1`, the inhibition in assay [1] is -2.45%; in assay [2], 0.25%.

Consider `CN1C[C@H](CO)C[C@@H]2c3cccc4[nH]cc(c34)C[C@H]21`, for which the inhibition in assay [1] is 6.82%; in assay [2] it was 15.3%.

`Cc1cc2cc3c(C)cc(=O)oc3c(C)c2o1`: the figures for the inhibition in assay [1] and in assay [2] were 14.3% and 2.42%, respectively.

Turning to `COc1cc2c(cc1O)CCN[C@H]2C`, the inhibition was 10.8% in assay [1] and -4.77% in assay [2].

`c1cncc([C@@H]2CCCCN2)c1`: the inhibition in assay [1] was 0.25%.

With `CC[C@@]1([C@@H]2O[C@@H]([C@H]3O[C@@](O)(CO)[C@H](C)C[C@@H]3C)C[C@@H]2C)CC[C@H]([C@]2(C)CC[C@]3(C[C@H](O)[C@@H](C)[C@@H]([C@@H](C)[C@@H](OC)[C@H](C)C(=O)O)O3)O2)O1`, the inhibition in assay [2] stood at 2.48%.

Consider `Clc1ccc(C2CC3CCC2N3)cn1` (racemic), for which the inhibition in assay [2] worked out at 5.32%.

Consider `CCCCCC[C@@H]1[C@@H](OC(=O)C(C)C)[C@H](C)O[C@@H](O)[C@@H](N[C@H](O)c2cccc(NC=O)c2O)[C@@H](C)O[C@H]1O`, for which the inhibition in assay [1] was -2.88%.

For `C[C@@H]1C(=O)O[C@H]2C[C@@]34[C@H]5C[C@@H](C(C)(C)C)[C@]36[C@@H](OC(=O)[C@@H]6O)O[C@@]4(C(=O)O5)[C@]21O`, the inhibition in assay [1] turned out to be 6.97%.

Regarding `CC[C@@H](CO)NC(=O)[C@@H]1C=C2c3cccc4[nH]cc(c34)C[C@H]2N(C)C1`, in assay [1], the inhibition amounted to 6.45%.

In the case of `COc1ccc2c(c1O)-c1c(OC)c(OC)cc3c1[C@H](C2)N(C)CC3`, the inhibition in assay [1] was -6.07%.

As to `CC(=O)OCC1=C[C@H]2[C@@H]3C(C)(C)[C@]3(OC(=O)Cc3ccccc3)C[C@@H](C)[C@]2(O)[C@@H]2C=C(C)C(=O)[C@@]2(O)C1`, in assay [2], the inhibition turned out to be 6.06%.

Consider `C[C@@]12C=Cc3occc3[C@H]1CC[C@]13CC(=O)[C@H](CC[C@H]12)C3`, for which the inhibition in assay [1] is 8.34%.

Regarding `C[C@@H]1C[C@@H]([C@H](O)CC2CC(=O)NC(=O)C2)C(=O)[C@@H](C)C1`, the inhibition in assay [2] was -2.08%.

Take `CC1=C(C(=O)O)N2C(=O)[C@@H](NC(=O)[C@H](N)C3=CCC=CC3)[C@H]2SC1`: the inhibition in assay [1] is -0.38%.

Consider `O=C(O[C@@H]1Cc2c(O)cc(O)cc2O[C@@H]1c1cc(O)c(O)c(O)c1)c1cc(O)c(O)c(O)c1`, for which, in assay [2], the inhibition is -4.27%.

In the case of `O=c1c2ccccc2nc2n1CCc1c-2[nH]c2ccccc12`, in assay [1], the inhibition is -4%.

Regarding `O=C(O)/C=C/c1c[nH]c2ccccc12`, in assay [2], the inhibition was found to be 4.54%.

Consider `CC(C)=CCC[C@](C)(O)[C@H]1CC[C@]2(C)[C@@H]1CC[C@@H]1[C@@]3(C)CCC(=O)C(C)(C)[C@@H]3CC[C@]12C`, for which the inhibition in assay [2] was -2.48%.

As to `O=C(O)CCCc1c[nH]c2ccccc12`, the inhibition in assay [2] is -5.54%.

Regarding `CN1C(=O)[C@]23CC4=CC=C[C@H](O)[C@H]4N2C(=O)[C@@]1(CO)SS3`, the inhibition in assay [2] came to 10.3%.

For the compound `O[C@H]1[C@H](O)[C@@H](O)CN2CC[C@H](O)[C@H]12`, the inhibition in assay [2] was determined as 0.79%.

Take `CNc1ccc2oc(C[C@H]3O[C@@]4(CC[C@H]3C)O[C@H]([C@H](C)C(=O)c3ccc[nH]3)[C@H](C)C[C@H]4C)nc2c1C(=O)O`: the inhibition in assay [2] was -3.34%.

Regarding `CC(=O)C1=C(O)[C@@H]2[C@H]3c4c[nH]c5cccc(c45)C[C@H]3C(C)(C)N2C1=O`, the inhibition in assay [2] worked out at 6.85%.

Consider `Nc1ncnc2c1ccn2[C@@H]1O[C@H](CO)[C@@H](O)[C@H]1O`, for which the inhibition in assay [1] amounted to 4.48%.

With `C=C[C@@]1(C)CC(=O)[C@]2(O)[C@@]3(C)[C@@H](O)CCC(C)(C)[C@@H]3[C@H](O)[C@H](OC(C)=O)[C@@]2(C)O1`, the inhibition in assay [2] came to 1.35%.

`CC(=O)OC[C@@]1(O)C[C@@]23CC[C@@H]4c5ccoc5CC[C@@]4(C)[C@@H]2CC[C@@H]1C3`: in assay [1], the inhibition was -6.2%.

With `OCC1=C[C@@H](O)[C@@H]2C=CO[C@@H](O[C@@H]3O[C@H](CO)[C@@H](O)[C@H](O)[C@H]3O)[C@H]12`, in assay [1], the inhibition was -1.28%.

Regarding `CC1=CC(=O)CC(C)(C)C1(O)/C=C/C(C)=C\C(=O)O` (racemic), the inhibition in assay [2] was -4.4%.

As for `O=C1c2ccc(O)cc2O[C@@H](c2cc(O)c(O)c(O)c2)[C@@H]1O`, the inhibition in assay [1] was determined as 4.04%.

In the case of `CC(C)=CCC/C(C)=C/CC/C(C)=C/CC/C(C)=C/CC/C(C)=C/CC/C(C)=C/CC/C(C)=C/CC/C(C)=C/CC/C(C)=C/CO`, the inhibition in assay [1] was -1.74%.

For `CC[C@@H](C(=O)O)[C@@H]1O[C@@H]([C@@H](C)[C@H](O)[C@H](C)C(=O)[C@H](CC)[C@H]2O[C@]3(C=C[C@@H](O)[C@]4(CC[C@@](C)([C@H]5CC[C@](O)(CC)[C@H](C)O5)O4)O3)[C@H](C)C[C@@H]2C)[C@@H](C)C[C@@H]1C`, the inhibition in assay [1] is -1.36%.

In the case of `CCCCCCCCCCCC1=C(O)C(=O)C=C(O)C1=O`, the inhibition in assay [2] is 1.24%.

Turning to `CO[C@H]1[C@H](OC(=O)c2ccc(C)[nH]2)[C@H](O)[C@@H](Oc2ccc3c(O)c(NC(=O)c4c[nH]c(C(=O)Nc5c(O)c6ccc(O[C@H]7OC(C)(C)[C@@H](OC)[C@H](OC(=O)c8ccc(C)[nH]8)[C@@H]7O)c(C)c6oc5=O)c4C)c(=O)oc3c2C)OC1(C)C`, the inhibition in assay [2] was determined as 3.14%.

As for `COc1cccc2c1cc([N+](=O)[O-])c1c(C(=O)O)cc3c(c12)OCO3`, the inhibition in assay [2] is 22.7%.

For the compound `COc1ccc([C@@H]2OC[C@@H]3[C@H]2CO[C@H]3c2ccc(OC)c(OC)c2)cc1OC`, the inhibition in assay [2] came to 0.02%.

On to `CC(C)(C)[C@]1(O)CC2OC(=O)CC23C(=O)OC2OC(=O)[C@H](O)C231` (stereo not given in full), for which the inhibition in assay [2] came out at 10.9%.

As to `C=C1CC[C@@H]2O[C@]2(C)CC[C@@H]2[C@@H]1CC2(C)C`, the inhibition in assay [2] is 1.64%.

As to `COc1ccc([C@@H]2CC(=O)c3c(O)cc(O[C@@H]4O[C@H](CO[C@@H]5O[C@@H](C)[C@H](O)[C@@H](O)[C@H]5O)[C@@H](O)[C@H](O)[C@H]4O)cc3O2)cc1O`, the inhibition in assay [1] is -4.26%.

`c1ccc2c3c([nH]c2c1)CNCC3`: in assay [2], the inhibition is -5.97%.

Take `CCCCCCCCCCCCCC/C(C(=O)O)=C(\C)C(=O)O`: in assay [2], the inhibition amounted to 9.23%.

As to `CNC(=O)Oc1ccc2c(c1)[C@]1(C)CCN(C)[C@@H]1N2C`, the inhibition in assay [2] came out at 88%.

For `Cc1cc2c(C(C)C)c(O)c(O)c(C=O)c2c(O)c1-c1c(C)cc2c(C(C)C)c(O)c(O)c(C=O)c2c1O`, the inhibition in assay [2] is -2.11%.

`CC1(C)O[C@H]2CC(=O)OC[C@]23[C@H]2CC[C@@]4(C)[C@H](c5ccoc5)OC(=O)[C@H]5O[C@]54[C@]2(C)C(=O)C[C@@H]13`: the inhibition in assay [1] is -0.85%.

As to `COC1=CC(=O)OC(/C=C/c2ccccc2)C1` (racemic), the inhibition in assay [2] is -2.41%.

For `OC[C@@H]1[C@@H](O)[C@H](O)[C@H]2[C@@H](O)CCN21`, in assay [2], the inhibition is 1.12%.

In the case of `COc1ccc2c3c1O[C@H]1C[C@@H](O)C=C[C@@]31CCN(C)C2`, the inhibition in assay [2] was found to be 37.8%.

Take `CS[C@H]1SC[C@H]2C(=O)N(C)[C@@H](C(C)C)C(=O)OC[C@@H](NC(=O)c3cnc4ccccc4n3)C(=O)N[C@@H](C)C(=O)N(C)[C@@H]1C(=O)N(C)[C@@H](C(C)C)C(=O)OC[C@@H](NC(=O)c1cnc3ccccc3n1)C(=O)N[C@@H](C)C(=O)N2C`: the inhibition in assay [2] is -7.37%.

Consider `C=C1O[C@@](CO)(n2cnc3c(N)ncnc32)[C@H](O)[C@@H]1O`, for which the inhibition in assay [2] is -3.01%.

Take `CC(=O)O[C@@]12C[C@@H](C)[C@@]3(O)[C@@H](C=C(CO)C[C@]4(O)C(=O)C(C)=C[C@@H]34)[C@@H]1C2(C)C`: the inhibition in assay [2] amounted to 3.93%.

(Values after ChEMBL document CHEMBL2163249, “Exploration of natural compounds as sources of new bifunctional scaffolds targeting cholinesterases and beta amyloid aggregation: the case of chelerythrine” (Bioorg Med Chem, 2012).)
